Test results as given in patent publication US12319672B2, “Alpha-D-galactopyranoside derivatives” (Idorsia Pharmaceuticals Ltd, priority 2019, dated 2025).

Columns and labels:
human Gal-3 (hGal-3) = human Gal-3 (hGal-3) (Homo sapiens (Human), UniProt P17931); assay: Competitive binding assay: binding of biotinylated hGal-3 to microplate-adsorbed asialofetuin (ASF); conditions: Activity on hGal-3; mean values of several measurements
How it was run: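 Compounds in DMSO dilution series competed with 300-1000 ng/mL biotinylated hGal-3 for asialofetuin adsorbed on the plate (3 h, 4° C). Streptavidin-peroxidase at 80 ng/mL (1 h, 4° C) with ABTS gave a spectrophotometric read-out, and IC50 was reported as the mean of repeat runs.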

human Gal-1 (hGal-1) = assay: Competitive binding assay: binding of biotinylated hGal-1 to microplate-adsorbed asialofetuin (ASF); conditions: Activities on hGal-1; mean values of several measurements
Sequence of human Gal-1 (hGal-1) (P09382 2-135 limits assumed): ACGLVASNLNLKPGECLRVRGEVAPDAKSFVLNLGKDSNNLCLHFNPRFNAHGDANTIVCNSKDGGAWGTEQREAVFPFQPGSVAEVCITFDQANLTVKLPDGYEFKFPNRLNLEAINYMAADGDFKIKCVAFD
How it was run: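 Spectrophotometric readout (streptavidin-peroxidase, ABTS) of biotinylated galectin retained on ASF-coated wells. Biotinylated hGal-1 or hGal-3, 300-1000 ng/mL, co-incubated with test compound 3 h at 4° C, then washed. Mean IC50 from repeat runs.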

Sequence of human Gal-3 (hGal-3) (P17931 whole entry): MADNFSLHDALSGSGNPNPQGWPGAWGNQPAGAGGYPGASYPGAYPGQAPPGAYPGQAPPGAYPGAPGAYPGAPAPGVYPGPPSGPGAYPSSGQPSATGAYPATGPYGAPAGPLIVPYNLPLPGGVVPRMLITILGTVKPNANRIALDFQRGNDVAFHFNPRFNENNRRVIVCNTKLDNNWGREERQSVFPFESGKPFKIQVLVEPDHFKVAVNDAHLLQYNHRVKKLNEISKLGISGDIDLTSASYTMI

Compound | IC50 (human Gal-3 (hGal-3)) | IC50 (human Gal-1 (hGal-1))
CO[C@@H]1[C@@H](n2cc(-c3cc(F)c(F)c(F)c3)nn2)[C@@H](O)[C@@H](CO)O[C@@H]1C[C@H]1CC([C@@H]2CCN(C)C(=O)C2)=NO1 [Ex 1.89] | 990 nM | 4110 nM
CO[C@@H]1[C@@H](n2cc(-c3cc(F)c(F)c(F)c3)nn2)[C@@H](O)[C@@H](CO)O[C@@H]1Cc1cc(C2CCN(C)C(=O)C2)no1 (stereo partly drawn) [Ex 1.90] | 260 nM | 1780 nM
CO[C@@H]1[C@@H](n2cc(-c3cc(F)c(F)c(F)c3)nn2)[C@@H](O)[C@@H](CO)O[C@@H]1C[C@H]1CC([C@@H]2CCNC(=O)C2)=NO1 [Ex 1.91] | 480 nM | 11800 nM
CO[C@@H]1[C@@H](n2cc(-c3cc(F)c(F)c(F)c3)nn2)[C@@H](O)[C@@H](CO)O[C@@H]1C[C@H]1CC([C@H]2CNC(=O)C2)=NO1 [Ex 1.93] | 550 nM | 16000 nM
CO[C@@H]1[C@@H](n2cc(-c3cc(F)c(F)c(F)c3)nn2)[C@@H](O)[C@@H](CO)O[C@@H]1Cc1cc(C2CNC(=O)C2)no1 (stereo partly drawn) [Ex 1.94] | 140 nM | 4760 nM
Cc1ccc(-c2cn([C@H]3[C@@H](O)[C@@H](CO)O[C@H](CC4CC(C5CCN(C(=O)OC(C)(C)C)CC5)=NO4)[C@@H]3O)nn2)c(F)c1F (stereo partly drawn) [Ex 1.97] | 31 nM | 3250 nM
Cc1cc(-c2cn([C@H]3[C@@H](O)[C@@H](CO)O[C@H](CC4CC(C5CCN(C(=O)OC(C)(C)C)CC5)=NO4)[C@@H]3O)nn2)ccc1F (stereo partly drawn) [Ex 1.99] | 400 nM | 471 nM
CC(C)(C)OC(=O)N1CCC(C2=NOC(C[C@H]3O[C@H](CO)[C@H](O)[C@H](n4cc(-c5ccc(C#N)c(F)c5)nn4)[C@H]3O)C2)CC1 (stereo partly drawn) [Ex 1.100] | 650 nM | 4900 nM
CC(C)(C)OC(=O)N1CCC(C2=NOC(C[C@H]3O[C@H](CO)[C@H](O)[C@H](n4cc(-c5cc(F)c(Cl)c(F)c5)nn4)[C@H]3O)C2)CC1 (stereo partly drawn) [Ex 1.101] | 180 nM | 4100 nM
CC(C)(C)OC(=O)N1CCC(C2=NOC(C[C@H]3O[C@H](CO)[C@H](O)[C@H](n4cc(-c5ccc(Cl)c(F)c5F)nn4)[C@H]3O)C2)CC1 (stereo partly drawn) [Ex 1.102] | 82 nM | 2370 nM
CC(C)(C)OC(=O)N1CCC(C2=NOC(C[C@H]3O[C@H](CO)[C@H](O)[C@H](n4cc(-c5ccc(C(F)(F)F)c(F)c5)nn4)[C@H]3O)C2)CC1 (stereo partly drawn) [Ex 1.103] | 450 nM | 9820 nM
CC(C)(C)OC(=O)N1CCC(C2=NOC(C[C@H]3O[C@H](CO)[C@H](O)[C@H](n4cc(-c5ccc(Cl)c(Cl)c5)nn4)[C@H]3O)C2)CC1 (stereo partly drawn) [Ex 1.107] | 110 nM | 400 nM
COc1cc(-c2cn([C@H]3[C@@H](O)[C@@H](CO)O[C@H](CC4CC(C5CCN(C(=O)OC(C)(C)C)CC5)=NO4)[C@@H]3O)nn2)cc(F)c1F (stereo partly drawn) [Ex 1.108] | 180 nM | 1690 nM
CC(C)(C)OC(=O)N1CCC(C2=NOC(C[C@H]3O[C@H](CO)[C@H](O)[C@H](n4cc(-c5nc6ccccc6s5)nn4)[C@H]3O)C2)CC1 (stereo partly drawn) [Ex 1.109] | 1600 nM | 210 nM
COc1cc(-c2cn([C@H]3[C@@H](O)[C@@H](CO)O[C@H](CC4CC(C5CCN(C(=O)OC(C)(C)C)CC5)=NO4)[C@@H]3O)nn2)ccc1Cl (stereo partly drawn) [Ex 1.110] | 250 nM | 2240 nM
COc1cc(OC)c(-c2cn([C@H]3[C@@H](O)[C@@H](CO)O[C@H](CC4CC(C5CCN(C(=O)OC(C)(C)C)CC5)=NO4)[C@@H]3O)nn2)cc1F (stereo partly drawn) [Ex 1.111] | 1660 nM | 11500 nM
Cc1c(F)cccc1-c1cn([C@H]2[C@@H](O)[C@@H](CO)O[C@H](CC3CC(C4CCN(C(=O)OC(C)(C)C)CC4)=NO3)[C@@H]2O)nn1 (stereo partly drawn) [Ex 1.112] | 1000 nM | 770 nM
COc1ccc(-c2cn([C@H]3[C@@H](O)[C@@H](CO)O[C@H](CC4CC(C5CCN(C(=O)OC(C)(C)C)CC5)=NO4)[C@@H]3O)nn2)cc1 (stereo partly drawn) [Ex 1.113] | 1060 nM | 640 nM
CO[C@@H]1[C@@H](n2cc(-c3cc(F)c(F)c(F)c3)nn2)[C@@H](O)[C@@H](CO)O[C@@H]1Cc1cc(C2CCC(=O)NC2)no1 (stereo partly drawn) [Ex 1.114] | 75 nM | 1360 nM
CO[C@@H]1[C@@H](n2cc(-c3cccc(F)c3)nn2)[C@@H](O)[C@@H](CO)O[C@@H]1CC1CC(C2CCN(C(=O)OC(C)(C)C)CC2)=NO1 (stereo partly drawn) [Ex 1.115] | 440 nM | 940 nM
CO[C@@H]1[C@@H](n2cc(-c3ccc(Cl)c(F)c3)nn2)[C@@H](O)[C@@H](CO)O[C@@H]1CC1CC(C2CCN(C(=O)OC(C)(C)C)CC2)=NO1 (stereo partly drawn) [Ex 1.116] | 170 nM | 1750 nM
CO[C@@H]1[C@@H](n2cc(-c3ccc(Br)c(F)c3)nn2)[C@@H](O)[C@@H](CO)O[C@@H]1CC1CC(C2CCN(C(=O)OC(C)(C)C)CC2)=NO1 (stereo partly drawn) [Ex 1.117] | 330 nM | 1140 nM
CO[C@@H]1[C@@H](n2cc(-c3cc(F)cc(F)c3)nn2)[C@@H](O)[C@@H](CO)O[C@@H]1CC1CC(C2CCN(C(=O)OC(C)(C)C)CC2)=NO1 (stereo partly drawn) [Ex 1.118] | 330 nM | 1470 nM
CO[C@@H]1[C@@H](n2cc(-c3cc(F)c(F)c(F)c3)nn2)[C@@H](O)[C@@H](CO)O[C@@H]1Cc1cc(C2CCCCC2)no1 [Ex 1.120] | 290 nM | 10600 nM
CO[C@@H]1[C@@H](n2cc(-c3ccc(Br)c(F)c3)nn2)[C@@H](O)[C@@H](CO)O[C@@H]1Cc1cc(C2CCN(C(=O)OC(C)(C)C)CC2)no1 [Ex 1.125] | 140 nM | 1000 nM
CO[C@@H]1[C@@H](n2cc(-c3cc(F)cc(F)c3)nn2)[C@@H](O)[C@@H](CO)O[C@@H]1Cc1cc(C2CCN(C(=O)OC(C)(C)C)CC2)no1 [Ex 1.126] | 81 nM | 440 nM

Results, then the compound that gave them:

IC50 (human Gal-3 (hGal-3)) | IC50 (human Gal-1 (hGal-1)) | Compound
260 nM | 4910 nM | CO[C@@H]1[C@@H](n2cc(-c3cc(F)c(F)c(F)c3)nn2)[C@@H](O)[C@@H](CO)O[C@@H]1Cc1cc(C2CCNC(=O)C2)no1 (stereo partly drawn) [Ex 1.92]
190 nM | 1210 nM | CC(C)(C)OC(=O)N1CCC(C2=NOC(C[C@H]3O[C@H](CO)[C@H](O)[C@H](n4cc(-c5cc(F)c(Cl)cc5F)nn4)[C@H]3O)C2)CC1 (stereo partly drawn) [Ex 1.95]
1740 nM | 8650 nM | COc1ccc(F)cc1-c1cn([C@H]2[C@@H](O)[C@@H](CO)O[C@H](CC3CC(C4CCN(C(=O)OC(C)(C)C)CC4)=NO3)[C@@H]2O)nn1 (stereo partly drawn) [Ex 1.96]
1560 nM | 1840 nM | CC(C)(C)OC(=O)N1CCC(C2=NOC(C[C@H]3O[C@H](CO)[C@H](O)[C@H](n4cc(-c5ccc6ncsc6c5)nn4)[C@H]3O)C2)CC1 (stereo partly drawn) [Ex 1.98]
1840 nM | 450 nM | CC(C)(C)OC(=O)N1CCC(C2=NOC(C[C@H]3O[C@H](CO)[C@H](O)[C@H](n4cc(-c5ccc(F)cn5)nn4)[C@H]3O)C2)CC1 (stereo partly drawn) [Ex 1.104]
1680 nM | 2340 nM | CC(C)(C)OC(=O)N1CCC(C2=NOC(C[C@H]3O[C@H](CO)[C@H](O)[C@H](n4cc(-c5cc(Cl)ccc5Cl)nn4)[C@H]3O)C2)CC1 (stereo partly drawn) [Ex 1.105]
490 nM | 1530 nM | COc1cc(F)c(F)cc1-c1cn([C@H]2[C@@H](O)[C@@H](CO)O[C@H](CC3CC(C4CCN(C(=O)OC(C)(C)C)CC4)=NO3)[C@@H]2O)nn1 (stereo partly drawn) [Ex 1.106]
260 nM | 4170 nM | CO[C@@H]1[C@@H](n2cc(-c3cc(F)c(F)c(F)c3)nn2)[C@@H](O)[C@@H](CO)O[C@@H]1Cc1cc(-c2ccn(C)c(=O)c2)on1 [Ex 1.119]
82 nM | 1090 nM | CO[C@@H]1[C@@H](n2cc(-c3ccc(Cl)c(F)c3)nn2)[C@@H](O)[C@@H](CO)O[C@@H]1Cc1cc(C2CCN(C(=O)OC(C)(C)C)CC2)on1 [Ex 1.121]
140 nM | 720 nM | CO[C@@H]1[C@@H](n2cc(-c3cc(F)cc(F)c3)nn2)[C@@H](O)[C@@H](CO)O[C@@H]1Cc1cc(C2CCN(C(=O)OC(C)(C)C)CC2)on1 [Ex 1.122]
140 nM | 140 nM | CO[C@@H]1[C@@H](n2cc(-c3cccc(F)c3)nn2)[C@@H](O)[C@@H](CO)O[C@@H]1Cc1cc(C2CCN(C(=O)OC(C)(C)C)CC2)no1 [Ex 1.123]
31 nM | 800 nM | CO[C@@H]1[C@@H](n2cc(-c3ccc(Cl)c(F)c3)nn2)[C@@H](O)[C@@H](CO)O[C@@H]1Cc1cc(C2CCN(C(=O)OC(C)(C)C)CC2)no1 [Ex 1.124]
300 nM | 9840 nM | CO[C@@H]1[C@@H](n2cc(-c3cc(F)c(F)c(F)c3)nn2)[C@@H](O)[C@@H](CO)O[C@@H]1Cc1cc(-c2nc(Br)cs2)on1 [Ex 1.127]
870 nM | 15400 nM | CO[C@@H]1[C@@H](n2cc(-c3cc(F)c(F)c(F)c3)nn2)[C@@H](O)[C@@H](CO)O[C@@H]1CC1=NO[C@@H](C2CCCCC2)C1 [Ex 1.128]
270 nM | 14700 nM | CO[C@@H]1[C@@H](n2cc(-c3cc(F)c(F)c(F)c3)nn2)[C@@H](O)[C@@H](CO)O[C@@H]1CC1=NO[C@H](C2CCCCC2)C1 [Ex 1.129]
260 nM | 18100 nM | CO[C@@H]1[C@@H](n2cc(-c3cc(F)c(F)c(F)c3)nn2)[C@@H](O)[C@@H](CO)O[C@@H]1Cc1cc(C23CCC(NC(=O)OC(C)(C)C)(CC2)CC3)on1 [Ex 1.130]
140 nM | 7440 nM | CO[C@@H]1[C@@H](n2cc(-c3cc(F)c(F)c(F)c3)nn2)[C@@H](O)[C@@H](CO)O[C@@H]1Cc1cc(C23CCC(N)(CC2)CC3)on1 [Ex 1.131]
69 nM | 760 nM | CO[C@@H]1[C@@H](n2cc(-c3cc(F)c(F)c(F)c3)nn2)[C@@H](O)[C@@H](CO)O[C@@H]1Cc1cc(C2(O)CCN(C(=O)OC(C)(C)C)CC2)on1 [Ex 1.132]
230 nM | 10700 nM | CO[C@@H]1[C@@H](n2cc(-c3cc(F)c(F)c(F)c3)nn2)[C@@H](O)[C@@H](CO)O[C@@H]1Cc1cc(C2(O)CCNCC2)on1 [Ex 1.133]
